Measurements from patent US20040198973A1, “Process for preparation of carbapenem antibiotics” (priority 2001, published 2004).

Columns and labels:
[1] = Solubility of starting compound 1 in organic solvents; assay type: physicochemical
Text: The process described in Document 3 (Kohichi Hirai, Hiroshi Maruyama, Journal of Synthetic Organic Chemistry, Japan, 57, 383 (1999)) is the one for implementing such a procedure wherein a side chain part including amine is first condensed with parent derived from azetidinone, then, an active ester is introduced into the condensate, and thereafter, the resulting product is subjected to ring-closing reaction to form a lactam ring. However, a compound into which an active ester has been already introduced, p-nitrobenzyl(1R,5S,6S)-2-diphenoxyphosphoryloxy-6-[(R)-1-hydroxyethyl]-1-methyl-1-carbapen-2-em-3-carboxylate (starting compound 1) is industrially available recently at an affordable price as a starting material for parent of carbapenem, so that the starting material has been replaced by the above-described compound. However, solubility of the starting compound 1 is high in a high boiling point solvent such as dimethylformamide and dimethylsulfoxide, while it is low in a solvent having a low boiling point such as tetrahydrofuran and acetonitrile, as well as in aromatic solvents such as toluene (see the following Table 1). Under the circumstances, when a high boiling point solvent is used, a difficulty in industrial level arises in case of removing the high boiling point solvent as described later in detail. For this reason, there are many cases wherein the above-described starting compound 1 cannot be applied to the process of Document 3.

Pseudomonas aeruginosa = conditions: Document 1: Drug of the Future, 1996, 21(4): 361-365; cited from earlier work

Structure (SMILES) | Solubility ([1]; Acetonitrile, at 20° C., solvent volume per 0.1 g) | Solubility ([1]; Dimethylformamide, at 20° C., solvent volume per 0.1 g) | Solubility ([1]; Methylsulfoxide, at 20° C., solvent volume per 0.1 g) | Solubility ([1]; Tetrahydrofuran, at 20° C., solvent volume per 0.1 g) | Solubility ([1]; Toluene, at 20° C., solvent volume per 0.1 g) | Solubility ([1]; in a high boiling point solvent such as dimethylformamide and dimethylsulfoxide) | Solubility ([1]; in a low boiling point solvent such as tetrahydrofuran and acetonitrile, and aromatic solvents such as toluene) | antimicrobial action (Pseudomonas aeruginosa)
C[C@@H](O)[C@H]1C(=O)N2C(C(=O)OCc3ccc([N+](=O)[O-])cc3)=C(OP(=O)(Oc3ccccc3)Oc3ccccc3)[C@H](C)[C@@H]12 [p-nitrobenzyl(1R,5S,6S)-2-diphenoxyphosphoryloxy-6-[(R)-1-hydroxyethyl]-1-methyl-1-carbapen-2-em-3-carboxylate] | 0.6 ML/0.1 g | <0.1 ML/0.1 g | <0.1 ML/0.1 g | 0.6 ML/0.1 g | >10 ML/0.1 g | high | low | –
C[C@@H](O)[C@H]1C(=O)N2C(C(=O)O)=C(S[C@@H]3CN[C@H]([C@H](O)[C@@H]4CCNC4)C3)[C@H](C)[C@H]12 | – | – | – | – | – | – | – | excellent antimicrobial action
